Test results from patent US11352352B2, “Aminopyrimidine compound, preparation method therefor and use thereof” (BEIJING ADAMADLE BIOTECHNOLOGY LIMITED LIABILITY COMPANY, priority 2017, dated 2022).

Assays:
Test in all cases: Cell proliferation inhibition experiment, CellTiter-Glo (CTG) method
Type in all cases: cell-based
NCI-H1975 = settings: for IC50: NCI-H1975 cells, CTG, 3 days; for A-431/NCI-H1975 Selectivity: ratio of A-431 IC50 to NCI-H1975 IC50
Outline: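 NCI-H1975 cells with viability above 90% by trypan blue were seeded at 90 μL per well in black 96-well plates and incubated overnight at 37° C., 5% CO2. Compounds were added at nine concentrations in triplicate, and viability was measured with CellTiter-Glo luminescence on EnVision. IC50 came from non-linear S-curve fitting in GraphPad Prism 5.0.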

PC-9 = PC-9 cells, 3 days
Outline: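 Cells in log-phase growth (viability above 90% by trypan blue) were seeded at 90 μL per well in black-walled, clear-bottom 96-well plates and incubated overnight at 37° C., 5% CO2. A T0 plate was read the next day. Test compounds were added at nine concentrations in triplicate with a solvent control. Viability was measured by CellTiter-Glo luminescence on EnVision, and IC50 came from non-linear S-curve fitting in GraphPad Prism 5.0.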

A-431 = A-431 cells, 3 days
Outline: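 CTG luminescence measured after 3-day compound exposure, with a T0 plate read the day after seeding and solvent wells as control. Nine concentrations, 3-fold steps, in triplicate: A-431 from 30 μM, NCI-H1975 and PC-9 from 1.111 μM. IC50 derived by non-linear S-curve regression.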

Row | Compound | IC50 (NCI-H1975) | A-431/NCI-H1975 Selectivity (NCI-H1975) | IC50 (PC-9) | IC50 (A-431) | IC50 (NCI-H1975; Homo sapiens, NCI-H1975, 72 h) | IC50 (PC-9; Homo sapiens, PC-9, 72 h) | IC50 (A-431; Homo sapiens, A-431, 72 h)
1 | C=CC(=O)Nc1cc(Nc2cc(-c3ccc4c(cnn4C)c3)ncn2)c(OC)cc1N1CCC(N2CCOCC2)CC1 [compound 208] | 20 nM | 54.8 | 10.7 nM | 1100 nM |  |  | 
2 | C=CC(=O)Nc1cc(Nc2cc(-c3ccc4cnn(C)c4c3)ncn2)c(OC)cc1N1CCC(C2CCOCC2)CC1 [compound 209] |  | 65.7 |  |  | 24.7 nM | 12 nM | 1620 nM
3 | C=CC(=O)Nc1cc(Nc2cc(-c3ccc4cnn(C)c4c3)ncn2)c(OC)cc1N1CCC(N2CCN(C3COC3)CC2)CC1 [compound 211] |  |  |  |  | 11.3 nM | 7.4 nM | 1040 nM
4 | C=CC(=O)Nc1cc(Nc2cc(-c3ccc4c(cnn4C)c3)ncn2)c(OC)cc1N1CCC(N2CCCC2=O)CC1 [compound 212] |  | 28.3 |  |  | 71.8 nM | 54.7 nM | 2030 nM
5 | C=CC(=O)Nc1cc(Nc2cc(-c3ccc4cnn(C)c4c3)ncn2)c(OC)cc1N1CCC(N2CCCC2=O)CC1 [compound 213] |  | 27.4 |  |  | 74.9 nM | 55.6 nM | 2060 nM
6 | C=CC(=O)Nc1cc(Nc2cc(-c3ccc4c(cnn4C)c3)ncn2)c(OC)cc1N1CCN(C2CCOC2)CC1 (stereo not drawn) [compound 214] |  | 77.6 |  |  | 19.7 nM | 16.7 nM | 1530 nM
7 | C=CC(=O)Nc1cc(Nc2cc(-c3ccc4cnn(C)c4c3)ncn2)c(OC)cc1N1CCN(C2CCOC2)CC1 (stereo not drawn) [compound 215] |  | 78.1 |  |  | 18.4 nM | 15.4 nM | 1440 nM
8 | C=CC(=O)Nc1cc(Nc2cc(-c3ccc4c(cnn4C)c3)ncn2)c(OC)cc1N1CCN(C2CCC(OC)C2)CC1 (stereo not drawn) [compound 216] |  | 90.0 |  |  | 13.6 nM | 12.8 nM | 1220 nM
9 | C=CC(=O)Nc1cc(Nc2cc(-c3ccc4cnn(C)c4c3)ncn2)c(OC)cc1N1CCN(C2CCC(OC)C2)CC1 (stereo not drawn) [compound 217] |  | 82.8 |  |  | 16.9 nM | 13.6 nM | 1400 nM
10 | C=CC(=O)Nc1cc(Nc2cc(-c3ccc4c(cnn4C)c3)ncn2)c(OC)cc1N1CCN(C2COC2)CC1 [compound 218] |  | 86.6 |  |  | 21.2 nM | 9.2 nM | 1830 nM
11 | C=CC(=O)Nc1cc(Nc2cc(-c3ccc4cnn(C)c4c3)ncn2)c(OC)cc1N1CCN(C2COC2)CC1 [compound 219] |  | 50.8 |  |  | 49.4 nM | 45.9 nM | 2510 nM
12 | C=CC(=O)Nc1cc(Nc2cc(-c3ccc4c(cnn4C)c3)ncn2)c(OC)cc1N(C)C1CCN(C2CCOCC2)CC1 [compound 220] |  | 40.1 |  |  | 60.7 nM | 55.4 nM | 2430 nM
13 | C=CC(=O)Nc1cc(Nc2cc(-c3ccc4cnn(C)c4c3)ncn2)c(OC)cc1N(C)C1CCN(C2CCOCC2)CC1 [compound 221] |  | 34.7 |  |  | 70.3 nM | 96 nM | 2440 nM
14 | C=CC(=O)Nc1cc(Nc2cc(-c3ccc4c(cnn4C)c3)ncn2)c(OC)cc1N(C)C1CCN(CCOC)C1 (stereo not drawn) [compound 222] |  | 72.3 |  |  | 13.6 nM | 20.7 nM | 983 nM
15 | C=CC(=O)Nc1cc(Nc2cc(-c3ccc4cnn(C)c4c3)ncn2)c(OC)cc1N(C)C1CCN(CCOC)C1 (stereo not drawn) [compound 223] |  | 57.4 |  |  | 40.5 nM | 40.6 nM | 2320 nM
16 | C=CC(=O)Nc1cc(Nc2cc(-c3ccc4c(cnn4C)c3)ncn2)c(OC)cc1N(C)C1CCN(CCOC)CC1 [compound 224] |  | 69.3 |  |  | 15.8 nM | 27.1 nM | 1090 nM
17 | C=CC(=O)Nc1cc(Nc2cc(-c3ccc4cnn(C)c4c3)ncn2)c(OC)cc1N(C)C1CCN(CCOC)CC1 [compound 225] |  | 32.9 |  |  | 75.1 nM | 67.2 nM | 2470 nM
18 | C=CC(=O)Nc1cc(Nc2cc(-c3ccc4c(cnn4C)c3)ncn2)c(OC)cc1N(C)C1CCN(CC)CC1 [compound 226] |  | 35.0 |  |  | 68.2 nM | 54.6 nM | 2390 nM
19 | C=CC(=O)Nc1cc(Nc2cc(-c3ccc4cnn(C)c4c3)ncn2)c(OC)cc1N(C)C1CCN(CC)CC1 [compound 227] |  | 30.6 |  |  | 79.6 nM | 90.7 nM | 2440 nM
20 | C=CC(=O)Nc1cc(Nc2nccc(-c3ccc4c(cnn4C)c3)n2)c(OC)cc1N1CCN(C)CC1 [compound 228] |  | 24.1 |  |  | 65.7 nM | 35.7 nM | 1580 nM
21 | C=CC(=O)Nc1cc(Nc2nccc(-c3ccc4c(cnn4C)c3)n2)c(OC)cc1N1C[C@@H](C)N(C)[C@@H](C)C1 [compound 229] |  | 17.3 |  |  | 93.8 nM | 68.1 nM | 1620 nM
22 | C=CC(=O)Nc1cc(Nc2nccc(-c3ccc4c(cnn4C)c3)n2)c(OC)cc1N1CCC(N2CCN(C)CC2)CC1 [compound 230] |  | 29.1 |  |  | 68.2 nM | 59.4 nM | 1980 nM
23 | C=CC(=O)Nc1cc(Nc2nccc(-c3ccc4c(cnn4C)c3)n2)c(OC)cc1N(C)C1CCN(C)CC1 [compound 231] |  | 17.8 |  |  | 96.8 nM | 76.5 nM | 1730 nM
24 | C=CC(=O)Nc1cc(Nc2nccc(-c3ccc4c(cnn4C)c3)n2)c(OC)cc1N1CCN(CCOC)CC1 [compound 232] |  | 28.4 |  |  | 90.2 nM | 82.7 nM | 2560 nM
25 | C=CC(=O)Nc1cc(Nc2nccc(-c3ccc4c(cnn4C)c3)n2)c(OC)cc1N1CCC(N2C[C@@H](C)N(C)[C@@H](C)C2)CC1 [compound 233] |  | 34.1 |  |  | 71.4 nM | 54.9 nM | 2440 nM
